Read-outs that look alike come from different tables or passages of the source.
How the values were obtained:
[1] = test system: ATR-driven phosphorylation of Chk1 kinase at Serine 345 in HT-29 colorectal adenocarcinoma cells; assay: pCHK1 cellular assay (CHK1 p-Ser345 AlphaScreen SureFire); type: cell-based; conditions: Homo sapiens, HT-29, HT-29 cells, 4-nitroquinoline N-oxide 12 uM; read-out: Cell IC50 (pCHK1 IC50 values)
Procedure, shortened: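 HT-29 cells seeded overnight, treated with 1:3 serially diluted compound for 90 minutes at 37° C., then 12 uM (final) 4-nitroquinoline N-oxide for 120 minutes. Lysates read for Chk1 p-Ser345 by AlphaScreen SureFire; IC50 from four-parameter logistic fit, normalized to DMSO (max) and 5 uM ATR inhibitor (min).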

ATR/ATRIP complex = ATR/ATRIP complex (Homo sapiens (Human), UniProt Q13535); assay: ATR/ATRIP enzymatic assay (Caliper-based); type: biochemical; conditions: FAM-labeled RAD17 peptide, ATP
Procedure, shortened: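 FLAG-TEV-ATR/His6-ATRIP co-expressed in HEK293 and anti-FLAG purified. Compound preincubated 30 min at 28 °C with enzyme (2x solution 4 nM), then FAM-RAD17 peptide (2x solution 10 uM, 2 μM ATP) added for 6 h at 28 °C; HEPES pH 8, 10 mM MnCl2. Caliper conversion read-out, IC50 from four-parameter fit.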

[2] = read-out: ATR/ATRIP Enzyme IC50
[3] = estimated range, read-out: ATR/ATRIP Enzyme IC50 (estimated class)

ATR/ATRIP complex, sequence (Q13535 whole entry): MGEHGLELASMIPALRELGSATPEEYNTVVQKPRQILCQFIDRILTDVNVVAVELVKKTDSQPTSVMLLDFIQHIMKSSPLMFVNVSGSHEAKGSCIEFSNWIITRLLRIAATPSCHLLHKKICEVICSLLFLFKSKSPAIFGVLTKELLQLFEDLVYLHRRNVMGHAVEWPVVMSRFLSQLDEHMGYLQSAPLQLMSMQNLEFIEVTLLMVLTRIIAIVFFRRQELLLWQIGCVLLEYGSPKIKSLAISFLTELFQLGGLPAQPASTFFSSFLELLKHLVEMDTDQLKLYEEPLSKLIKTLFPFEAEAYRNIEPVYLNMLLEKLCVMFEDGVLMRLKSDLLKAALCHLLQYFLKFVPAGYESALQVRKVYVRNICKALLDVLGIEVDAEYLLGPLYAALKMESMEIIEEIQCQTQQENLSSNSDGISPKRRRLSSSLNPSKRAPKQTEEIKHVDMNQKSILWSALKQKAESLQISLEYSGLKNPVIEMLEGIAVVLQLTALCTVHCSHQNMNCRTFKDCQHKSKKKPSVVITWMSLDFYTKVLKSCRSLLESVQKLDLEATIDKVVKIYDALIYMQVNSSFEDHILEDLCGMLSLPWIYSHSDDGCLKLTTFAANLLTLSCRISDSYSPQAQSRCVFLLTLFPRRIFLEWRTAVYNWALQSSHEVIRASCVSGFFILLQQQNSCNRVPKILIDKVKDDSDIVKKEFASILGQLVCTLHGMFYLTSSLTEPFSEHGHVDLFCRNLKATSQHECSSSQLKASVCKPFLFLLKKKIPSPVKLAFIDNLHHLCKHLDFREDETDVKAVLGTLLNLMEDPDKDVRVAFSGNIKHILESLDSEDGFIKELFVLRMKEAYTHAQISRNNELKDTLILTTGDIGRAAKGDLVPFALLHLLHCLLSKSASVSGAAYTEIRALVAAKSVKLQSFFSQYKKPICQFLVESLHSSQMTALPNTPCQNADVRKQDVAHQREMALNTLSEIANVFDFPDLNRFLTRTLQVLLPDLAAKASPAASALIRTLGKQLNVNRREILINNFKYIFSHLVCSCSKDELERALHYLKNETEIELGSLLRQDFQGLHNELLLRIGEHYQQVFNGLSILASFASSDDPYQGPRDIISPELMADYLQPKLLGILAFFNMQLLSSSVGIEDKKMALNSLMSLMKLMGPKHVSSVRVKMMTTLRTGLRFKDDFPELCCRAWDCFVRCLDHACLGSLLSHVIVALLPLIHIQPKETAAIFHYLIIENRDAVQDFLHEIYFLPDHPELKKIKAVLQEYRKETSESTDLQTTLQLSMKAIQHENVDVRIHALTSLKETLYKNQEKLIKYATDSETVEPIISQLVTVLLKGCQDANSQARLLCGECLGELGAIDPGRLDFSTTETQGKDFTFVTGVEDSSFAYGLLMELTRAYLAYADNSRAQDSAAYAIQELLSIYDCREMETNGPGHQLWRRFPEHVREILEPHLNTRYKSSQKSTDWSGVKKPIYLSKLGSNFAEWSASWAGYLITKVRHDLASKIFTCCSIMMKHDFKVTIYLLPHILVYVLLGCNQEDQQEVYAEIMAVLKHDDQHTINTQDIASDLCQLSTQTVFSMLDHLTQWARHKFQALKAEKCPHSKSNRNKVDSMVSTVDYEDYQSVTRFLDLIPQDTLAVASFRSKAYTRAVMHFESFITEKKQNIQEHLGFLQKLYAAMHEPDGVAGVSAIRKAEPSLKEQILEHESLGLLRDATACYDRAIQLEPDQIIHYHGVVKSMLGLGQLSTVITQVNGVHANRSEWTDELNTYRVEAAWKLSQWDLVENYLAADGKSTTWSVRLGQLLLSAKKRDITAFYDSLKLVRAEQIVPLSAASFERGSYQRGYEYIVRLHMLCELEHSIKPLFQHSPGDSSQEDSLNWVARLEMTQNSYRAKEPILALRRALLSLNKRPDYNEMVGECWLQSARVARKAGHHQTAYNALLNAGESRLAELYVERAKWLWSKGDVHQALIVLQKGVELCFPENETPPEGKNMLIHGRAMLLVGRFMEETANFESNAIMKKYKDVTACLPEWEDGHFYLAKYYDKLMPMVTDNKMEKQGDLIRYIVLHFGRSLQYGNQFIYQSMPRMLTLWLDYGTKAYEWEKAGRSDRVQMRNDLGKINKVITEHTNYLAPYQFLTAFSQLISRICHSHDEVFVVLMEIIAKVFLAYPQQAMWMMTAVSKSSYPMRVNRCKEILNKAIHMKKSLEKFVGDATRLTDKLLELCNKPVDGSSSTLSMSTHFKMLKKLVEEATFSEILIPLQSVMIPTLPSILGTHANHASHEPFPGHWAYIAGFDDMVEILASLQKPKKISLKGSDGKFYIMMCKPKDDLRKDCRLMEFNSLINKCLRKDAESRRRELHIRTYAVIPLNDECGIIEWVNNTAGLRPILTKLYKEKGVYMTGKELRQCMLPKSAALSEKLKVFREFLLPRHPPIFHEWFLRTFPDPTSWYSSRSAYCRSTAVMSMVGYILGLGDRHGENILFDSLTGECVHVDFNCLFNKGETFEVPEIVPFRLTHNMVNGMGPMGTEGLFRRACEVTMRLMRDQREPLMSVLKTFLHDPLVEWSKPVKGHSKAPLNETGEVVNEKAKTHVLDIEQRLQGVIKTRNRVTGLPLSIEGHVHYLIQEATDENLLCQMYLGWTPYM
ATR/ATRIP complex, sequence (Q8WXE1 whole entry partner): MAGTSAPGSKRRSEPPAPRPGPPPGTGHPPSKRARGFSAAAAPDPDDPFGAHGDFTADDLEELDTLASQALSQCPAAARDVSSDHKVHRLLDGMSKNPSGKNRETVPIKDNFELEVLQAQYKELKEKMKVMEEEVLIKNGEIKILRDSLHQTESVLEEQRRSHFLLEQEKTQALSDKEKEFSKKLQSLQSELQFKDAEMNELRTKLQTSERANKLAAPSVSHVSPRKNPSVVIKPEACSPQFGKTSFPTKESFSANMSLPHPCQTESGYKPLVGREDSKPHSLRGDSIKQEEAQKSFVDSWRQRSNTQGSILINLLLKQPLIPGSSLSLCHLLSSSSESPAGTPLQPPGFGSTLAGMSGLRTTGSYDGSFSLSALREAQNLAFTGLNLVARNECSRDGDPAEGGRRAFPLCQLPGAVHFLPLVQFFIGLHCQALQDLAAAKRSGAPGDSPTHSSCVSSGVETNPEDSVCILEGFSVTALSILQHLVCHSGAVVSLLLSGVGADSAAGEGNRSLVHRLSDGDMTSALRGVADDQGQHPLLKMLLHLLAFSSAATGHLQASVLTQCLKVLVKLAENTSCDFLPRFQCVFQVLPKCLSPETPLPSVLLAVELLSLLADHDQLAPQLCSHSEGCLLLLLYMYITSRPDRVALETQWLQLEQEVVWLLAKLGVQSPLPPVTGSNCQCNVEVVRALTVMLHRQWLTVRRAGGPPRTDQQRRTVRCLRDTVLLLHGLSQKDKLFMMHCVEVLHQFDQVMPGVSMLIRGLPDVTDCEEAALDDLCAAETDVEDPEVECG

IC50 [1] | IC50 (ATR/ATRIP complex; [2]) | IC50 (ATR/ATRIP complex; [3]) | SMILES
0.008 µM | 0.159 µM |  | C[C@@H]1Cc2ncnc(N3CCCC(S(C)(=O)=O)C3)c2CN1c1cc(Cl)nc2[nH]ccc12 (stereo partly drawn) [Example 65, (7R)-6-(6-chloro-1H-pyrrolo[2,3-b]pyridin-4-yl)-7-methyl-4-(3-(methylsulfonyl)-piperidin-1-yl)-5,6,7,8-tetrahydropyrido[4,3-d]-pyrimidine]
0.265 µM | 0.336 µM |  | C[C@@H]1Cc2ncnc(C3CCN(S(C)(=O)=O)CC3)c2CN1c1cc(C#N)nc2[nH]ccc12 [Example 98, (R)-4-(7-methyl-4-(1-(methylsulfonyl)piperidin-4-yl)-7,8-dihydro-pyrido[4,3-d]pyrimidin-6(5H)-yl)-1H-pyrrolo-[2,3-b]pyridine-6-carbonitrile]
0.079 µM | 0.796 µM |  | C[C@@H]1Cc2ncnc(N3CCC(C#N)CC3)c2CN1c1ccnc2[nH]ccc12 [Example 82, (R)-1-(7-methyl-6-(1H-pyrrolo[2,3-b]pyridin-4-yl)-5,6,7,8-tetrahydro-pyrido[4,3-d]pyrimidin-4-yl)piperidine-4-carbonitrile]
0.021 µM | 0.32 µM |  | C[C@@H]1Cc2ncnc(N3CC(O)C3)c2CN1c1cc(Cl)nc2[nH]ccc12 [Example 77, (R)-1-(6-(6-chloro-1H-pyrrolo[2,3-b]pyridin-4-yl)-7-methyl-5,6,7,8-tetrahydropyrido[4,3-d]-pyrimidin-4-yl)azetidin-3-ol]
0.052 µM | 0.773 µM |  | Cc1cc(N2Cc3c(ncnc3C3CCN(S(C)(=O)=O)CC3)C[C@H]2C)c2cc[nH]c2n1 [Example 56, (R)-7-methyl-6-(6-methyl-1H-pyrrolo[2,3-b]pyridin-4-yl)-4-(1-(methylsulfonyl)piperidin-4-yl)-5,6,7,8-tetrahydropyrido[4,3-d]pyrimidine]
0.087 µM | 0.429 µM |  | CNC(=O)C1CN(c2ncnc3c2CN(c2cc(Cl)nc4[nH]ccc24)[C@H](C)C3)C1 [Example 34, 1-[(7R)-6-{6-chloro-1H-pyrrolo[2,3-b]pyridin-4-yl}-7-methyl-5H,6H,7H,8H-pyrido[4,3-d]pyrimidin-4-yl]-N-methylazetidine-3-carboxamide]
0.285 µM |  | 1 to 10 µM | CCS(=O)(=O)N1CCCC(c2ncnc3c2CN(c2cc(Cl)nc4[nH]ccc24)[C@H](C)C3)C1 (stereo partly drawn) [Example 24, 3-[(7R)-6-{6-chloro-1H-pyrrolo[2,3-b]pyridin-4-yl}-7-methyl-5H,6H,7H,8H-pyrido[4,3-d]pyrimidin-4-yl]-1-(ethanesulfonyl)-piperidine]
1.88 µM |  | 1 to 10 µM | CS(=O)(=O)c1ccc(-c2ncnc3c2CN(c2ccnc4[nH]ccc24)CC3)cc1 [Example 1, 4-(4-(Methylsulfonyl)phenyl)-6-(1H-pyrrolo[2,3-b]pyridin-4-yl)-5,6,7,8-tetrahydropyrido[4,3-d]pyrimidine bis(trifluoroacetate)]

From patent US10421765B2, “Tetrahydropyrido[4,3-d]pyrimidine inhibitors of ATR kinase” (Board of Regents, The University of Texas System, priority 2017, dated 2019)
